Laboratory results: PubChem BioAssay AID2060887 (Molecular Pharmacology Branch, DTP, NCI, 2025)
pIC50: −log10 of the molar value.

System: 782815-120-R-J1-PDC complex spheroid viability
Experiment: Anticancer human tumor 782815-120-R-J1-PDC patient-derived colon adenocarcinoma cell line growth inhibition [RAS]
Settings: for pIC50: curve of first compound; for viability, T/C: stronger effect = lower value
Description: RAS pathway inhibitors in Combinations in Complex Spheroids
A high-throughput screen of multi-cell type tumor spheroids was designed to identify active combinations of RAS pathway inhibitors and targeted small molecules. Complex spheroids include a stromal component modeled by human endothelial cells (HUVEC) and fibroblasts modeled by human mesenchymal stem cells (MSCs). The concentration ranges selected for each drug and investigational agent were based upon clinically achievable concentrations if the clinical Cmax of the agent was known.
Compounds. The drugs and investigational agents: abemaciclib (NSC768073), cobimetinib (NSC768068), divarasib (GDC6063, NSC841802), docetaxel (NSC628503), GDC-1971 (RLY-1971, NSC841576), gemcitabine (NSC613327), inavolisib (NSC800729), ipatasertib (NSC767898), KB-0742 (NSC834161), MRTX-1133 (NSC836407), osimertinib (NSC779217), RMC-4630 (NSC839698), RMC-6236 (NSC851965), RMC-6291 (NSC852671), Ro-3306 (NSC812927), sapanisertib (NSC764658), SN-38 (NSC673596), staurosporine (NSC755774), SY5609 (NSC837396), and tovorafenib (DAY101, NSC766906), were obtained from the National Cancer Institute (NCI) Developmental Therapeutics Program Chemical Repository. The FDA-approved anticancer drug set is available from the NCI Developmental Therapeutics Program. […] The stock solutions were prepared in dimethyl sulfoxide (DMSO, Sigma-Aldrich, St. Louis, MO, cat. D2650) at 800-fold the tested concentration and stored at -70 degrees C prior to their use. All drugs and investigational agents were tested over a range starting from a high concentration at or near the clinical Cmax and decreasing in half-log increments. If the clinical Cmax for an agent had not been determined, the highest concentration tested was 10 microM.
Cell Culture. All cells were maintained in an incubator at 37 degrees C and 5% CO2 with 95% humidity. The PDC lines were cultured according to standard operating procedures established by the NCI PDMR. All PDCs were thawed and cultured in Matrigel-coated flasks prepared with a working solution of 1X Ham's F-12 nutrient mix, without supplementation (Invitrogen, Waltham, MA, cat. 11765054), 100 U/mL penicillin-streptomycin (Invitrogen, cat. 15140122), and 2.5% Matrigel (Corning Inc., Corning, NY, cat. 354248) for the first three passages. The 362531-283-R-J2-PDC and 782815-120-R-J1-PDC lines were cultured in 6C/Colon 1B media, which includes advanced DMEM/F-12 (Thermo Fisher Scientific, cat. 12634028), 10 mM HEPES (Thermo Fisher Scientific, cat. 15630080), 1X GlutaMAX supplement (Thermo Fisher Scientific, cat. 35050061), 0.1 mg/mL primocin (InvivoGen, San Diego, CA, cat. ant-pm-2), 10% defined fetal bovine serum, heat inactivated (HyClone Laboratories Inc., Logan, UT, cat. SH30070.03HI), 50% L-WRN conditioned media (ATCC, cat. CRL-3276), 1.25 mM N-Acetyl-L-cysteine (Sigma-Aldrich, cat. A9165), 10 mM nicotinamide (Sigma-Aldrich, cat. N0636), 1X B-27 supplement (Thermo Fisher Scientific, cat. 17504044), 1X N-2 supplement (Thermo Fisher Scientific, cat. 17502048), 50 ng/mL human EGF (Thermo Fisher Scientific, cat. PHG0311), and 10 microM Y-27632 dihydrochloride (Tocris Bioscience, cat. 1254). The K12877-001-R-J1-PDC line was cultured in 6I media, which includes all 6C/Colon 1B media plus 10 ng/mL human FGF-10 (PeproTech, cat. 100-26), 1 ng/mL human FGF-2 (PeproTech, cat. 100-18B), 1 µM prostaglandin E2 (Tocris Bioscience, cat. 2296), […] hydrocortisone (Sigma-Aldrich, cat. H4001), and […] bovine insulin (Sigma-Aldrich, cat. I6634). The K86415-001-R-J1-PDC line was cultured in 6D media, which includes all 6C/Colon 1B media components minus the L-WRN conditioned media. The 485176-168-R4-J1-PDC was cultured in PANC media, which includes all 6C/Colon 1B media plus 100 ng/mL human FGF-10 (PeproTech, cat. 100-26), 500 nM SB-431542 (Selleckchem, cat. S1067), and 10 nM gastrin (Tocris Bioscience, cat. 3006). […]
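Note: spheroids exposed to compounds for 7 days before reading.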
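Throughout, for viability, T/C: 100% = DMSO vehicle control viability.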

In the case of `CC(C)NCC(C(=O)N1CCN(c2ncnc3c2C(C)CC3O)CC1)c1ccc(Cl)cc1` (configuration not stated) + C#Cc1c(F)ccc2cc(O)cc(-c3ncc4c(N5CC6CCC(C5)N6)nc(OCC56CCCN5CC(F)C6)nc4c3F)c12, the pIC50 (second compound 0.0316 µM) was < 5.00, the pIC50 (second compound 0.1 µM) was < 5.00 and the pIC50 (second compound 0.316 µM) was < 5.00. For the same molecule, the pIC50 (second compound 1 µM) was < 5.00, the pIC50 (second compound 3.16 µM) was < 5.00 and the pIC50 (second compound 10 µM) was < 5.00. It also gave a viability, T/C (second compound 0.0316 µM, first compound 0.0316 µM) of 95.9%, a viability, T/C (second compound 0.0316 µM, first compound 0.1 µM) of 106% and a viability, T/C (second compound 0.0316 µM, first compound 0.316 µM) of 95.6%. For the same molecule, the viability, T/C (second compound 0.0316 µM, first compound 1 µM) was 103%, the viability, T/C (second compound 0.0316 µM, first compound 3.16 µM) was 96.3% and the viability, T/C (second compound 0.0316 µM, first compound 10 µM) was 94.3%. It also gave a viability, T/C (second compound 0.1 µM, first compound 0.0316 µM) of 95.5%, a viability, T/C (second compound 0.1 µM, first compound 0.1 µM) of 104% and a viability, T/C (second compound 0.1 µM, first compound 0.316 µM) of 101%. It also gave a viability, T/C (second compound 0.1 µM, first compound 1 µM) of 98.1%, a viability, T/C (second compound 0.1 µM, first compound 3.16 µM) of 100% and a viability, T/C (second compound 0.1 µM, first compound 10 µM) of 97%. For the same molecule, the viability, T/C (second compound 0.316 µM, first compound 0.0316 µM) was 109%, the viability, T/C (second compound 0.316 µM, first compound 0.1 µM) was 108% and the viability, T/C (second compound 0.316 µM, first compound 0.316 µM) was 93.5%. The viability, T/C (second compound 0.316 µM, first compound 1 µM) was 103%, the viability, T/C (second compound 0.316 µM, first compound 3.16 µM) was 96.3% and the viability, T/C (second compound 0.316 µM, first compound 10 µM) was 105%. It also gave a viability, T/C (second compound 1 µM, first compound 0.0316 µM) of 108%, a viability, T/C (second compound 1 µM, first compound 0.1 µM) of 113% and a viability, T/C (second compound 1 µM, first compound 0.316 µM) of 90.7%. For the same molecule, the viability, T/C (second compound 1 µM, first compound 1 µM) was 94.6%, the viability, T/C (second compound 1 µM, first compound 3.16 µM) was 103% and the viability, T/C (second compound 1 µM, first compound 10 µM) was 103%. For the same molecule, the viability, T/C (second compound 3.16 µM, first compound 0.0316 µM) was 104%, the viability, T/C (second compound 3.16 µM, first compound 0.1 µM) was 101% and the viability, T/C (second compound 3.16 µM, first compound 0.316 µM) was 93.1%. It also gave a viability, T/C (second compound 3.16 µM, first compound 1 µM) of 100%, a viability, T/C (second compound 3.16 µM, first compound 3.16 µM) of 98.3% and a viability, T/C (second compound 3.16 µM, first compound 10 µM) of 102%. For the same molecule, the viability, T/C (second compound 10 µM, first compound 0.0316 µM) was 103%, the viability, T/C (second compound 10 µM, first compound 0.1 µM) was 108% and the viability, T/C (second compound 10 µM, first compound 0.316 µM) was 93.4%. For the same molecule, the viability, T/C (second compound 10 µM, first compound 1 µM) was 101%, the viability, T/C (second compound 10 µM, first compound 3.16 µM) was 96.5% and the viability, T/C (second compound 10 µM, first compound 10 µM) was 98.4%.
